Measured values: US11046691B1 (IDEAYA BIOSCIENCES, INC., priority 2018, dated 2021)

Each compound was assayed against hMAT2A (Homo sapiens (Human), UniProt P31153) (assay: Phosphate Sensor Fluorescence Assay (MAT2A enzyme inhibition)). Conditions: L-methionine 500 uM, ATP 500 uM, class symbols.
Format: biochemical
Protocol: The ability of the compound of present disclosure to inhibit MAT2A enzyme was determined using the Malachite Green or Phosphate Sensor Fluorescence Assay described below.
B. Phosphate Sensor Fluorescence Assay
MAT2A enzyme is incubated with a test compound in DMSO or DMSO and its substrates (L-methionine and ATP) in a microtiter plate. The enzymatic reaction is stopped by the addition of Working Phosphate Sensor Mixture. The plate is analyzed for fluorescence at 450 nm.
Assay Buffer: 50 mM Tris, pH 7.5/50 mM KCl/10 mM MgCl2/0.01% Brij-35/1 mM DTT/0.1% BGG/40 nM PNP/6 uM 7-MEG
L-methionine: 500 uM before the addition of Working Phosphate Sensor Mixture
ATP: 500 uM before the addition of Working Phosphate Sensor Mixture
Test compounds or DMSO were added to the appropriate well suing D300e digital dispenser. 5 μl/well of Assay Buffer was added to the wells corresponding to the negative control and 5 μl/well of MAT2A was added to all the wells except for those corresponding to the negative control. After incubating the plate at room temperature for 15 minutes, 5 μl/well of the 1 mM L-methionine/1 mM ATP mixture was added to all wells. The plate was centrifuged at 1000 rpm for 1 minute and then incubated at room temperature for 1 hour. 5 μl of the Working Phosphate Sensor Mixture was added to all wells and the plate was centrifuged at 1000 rpm for 1 minute. The plate was read for fluorescence at 450 nm after exciting at 430 nm.
Percent inhibition was calculated in Chemical and Biological Information System (CBIS), (ChemInnovation Software Inc.). Curves were fitted by CBIS as % inhibition vs. log [compound concentration] using a 4-parameter inhibition model. Fit=(A+((B−A)/(1+((C/x)^D)))) Res=(y−fit)

Sequence of hMAT2A (P31153 whole entry): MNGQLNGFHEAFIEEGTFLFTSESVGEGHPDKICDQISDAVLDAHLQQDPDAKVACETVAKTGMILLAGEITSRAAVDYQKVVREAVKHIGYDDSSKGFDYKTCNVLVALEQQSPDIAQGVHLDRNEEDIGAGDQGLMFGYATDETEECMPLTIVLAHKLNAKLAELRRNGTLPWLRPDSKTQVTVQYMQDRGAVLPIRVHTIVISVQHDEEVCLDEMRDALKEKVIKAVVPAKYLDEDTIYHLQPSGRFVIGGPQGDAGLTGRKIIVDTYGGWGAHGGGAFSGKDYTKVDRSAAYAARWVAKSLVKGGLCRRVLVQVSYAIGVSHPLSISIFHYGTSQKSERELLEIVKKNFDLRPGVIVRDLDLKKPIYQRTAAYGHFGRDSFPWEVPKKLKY

| IC50 | Structure (SMILES) |
| --- | --- |
| < 0.2 µM | O=c1nc(NCC(F)F)c2ccc(C(F)(F)F)cc2n1-c1ncccn1 [Example 122, 4-[(2,2-difluoroethyl)amino]-1-pyrimidin-2-yl-7-(trifluoromethyl)hydro-quinazolin-2-one] |
| < 0.2 µM | Cc1ccccc1-n1c(=O)nc(NCC(F)(F)F)c2ccc(C(F)(F)F)cc21 [Example 126, 1-(2-methylphenyl)-4-[(2,2,2-trifluoro-ethyl)amino]-7-(trifluoromethyl)hydro-quinazolin-2-one] |
| < 0.2 µM | Cc1ccccc1-n1c(=O)nc(NCC(F)F)c2ccc(C(F)(F)F)cc21 [Example 127, 4-[(2,2-difluoroethyl)amino]-1-(2-methylphenyl)-7-(trifluoromethyl)hydro-quinazolin-2-one] |
| < 0.2 µM | CNc1nc(=O)n(-c2ccccc2C)c2cc(C(F)(F)F)ccc12 [Example 129, 4-(methylamino)-1-(2-methylphenyl)-7-(trifluoromethyl)hydroquinazolin-2-one] |
| < 0.2 µM | O=c1nc(NCC(F)(F)F)c2ccc(C(F)(F)F)nc2n1-c1ccccc1 [Example 136, 1-phenyl-4-((2,2,2-trifluoroethyl)amino)-7-(trifluoromethyl)pyrido[2,3-d]-pyrimidin-2(1H)-one] |
| < 0.2 µM | O=c1nc(NCC(F)F)c2ccc(C(F)(F)F)nc2n1-c1ccccc1 [Example 137, 4-((2,2-difluoroethyl)amino)-1-phenyl-7-(trifluoromethyl)pyrido[2,3-d]pyrimidin-2(1H)-one] |
| < 0.2 µM | Nc1nc(=O)n(-c2ccccc2)c2nc(C(F)(F)F)ccc12 [Example 138, 4-amino-1-phenyl-7-(trifluoromethyl)-hydropyridino[2,3-d]pyrimidin-2-one] |
| < 0.2 µM | CNc1nc(=O)n(-c2cccc(C#N)c2)c2cc(C(F)(F)F)ccc12 [Example 142, 3[4-(methylamino)-2-oxo-7-(trifluoro-methyl)hydroquinazolinyl]benzene-carbonitrile] |
| < 0.2 µM | CNc1nc(=O)n(-c2ccccc2)c2cc(C(F)F)ccc12 [Example 143, 7-(difluoromethyl)-4-(methylamino)-1-phenylhydroquinazolin-2-one] |
| 0.2 to 0.5 µM | COc1nc(=O)n(-c2ccccc2)c2cc(C(F)(F)F)ccc12 [Example 144, 4-methoxy-1-phenyl-7-(trifluoromethyl)-hydroquinazolin-2-one] |
| < 0.2 µM | O=c1nc(N2CC[C@@H](O)C2)c2ccc(C(F)(F)F)cc2n1-c1ccccc1 [Example 145, 4-((3R)-3-hydroxypyrrolidinyl)-1-phenyl-7-(trifluoromethyl)hydro-quinazolin-2-one] |
| < 0.2 µM | Nc1nc(=O)n(-c2ccccc2)c2cc(C(F)(F)F)ccc12 [Example 146, 4-amino-1-phenyl-7-(trifluoromethyl)-hydroquinazolin-2-one] |
| < 0.2 µM | CNc1nc(=O)n(-c2ccccc2)c2cc(CCl)ccc12 [Example 160, 7-(chloromethyl)-4-(methylamino)-1-phenylhydroquinazolin-2-one] |
| < 0.2 µM | O=c1nc(N2CC(O)C2)c2ccc(C(F)(F)F)nc2n1-c1ccccc1Cl [Example 161, 1-(2-chlorophenyl)-4-(3-hydroxy-azetidinyl)-7-(trifluoromethyl)pyrido-[2,3-d]pyrimidin-2(1H)-one] |

The remaining lines, values behind:

| Structure (SMILES) | IC50 |
| --- | --- |
| O=c1nc(NCC(F)(F)F)c2ccc(C(F)(F)F)cc2n1-c1ncccn1 [Example 121] | 0.2 to 0.5 µM |
| CNc1nc(=O)n(-c2ncccn2)c2cc(C(F)(F)F)ccc12 [Example 123, 4-(methylamino)-1-pyrimidin-2-yl-7-(trifluoromethyl)hydroquinazolin-2-one] | 0.2 to 0.5 µM |
| Nc1nc(=O)n(-c2ncccn2)c2cc(C(F)(F)F)ccc12 [Example 124, 4-amino-1-pyrimidin-2-yl-7-(trifluoro-methyl)hydroquinazolin-2-one] | 0.5 to 1 µM |
| Cc1ccccc1-n1c(=O)nc(N)c2ccc(C(F)(F)F)cc21 [Example 125, 4-amino-1-(2-methylphenyl)-7-(trifluoromethyl)hydroquinazolin-2-one] | < 0.2 µM |
| Cc1ccccc1-n1c(=O)nc(N2CC[C@@H](O)C2)c2ccc(C(F)(F)F)cc21 [Example 128, 4-((3R)-3-hydroxypyrrolidin-1-yl)-1-(2-methylphenyl)-7-(trifluoromethyl)hydro-quinazolin-2-one] | < 0.2 µM |
| O=c1[nH]c(=O)n(-c2ccccc2)c2cc(C3CC3)ccc12 [Example 130, 7-cyclopropyl-1-phenyl-1,3-dihydro-quinazoline-2,4-dione] | 0.5 to 1 µM |
| CNc1nc(=O)n(-c2cccc(C(=O)O)c2)c2cc(Cl)ccc12 [Example 133, 3-[7-chloro-4-(methylamino)-2-oxo-hydroquinazolin-1-yl]benzoic acid] | < 0.2 µM |
| CNc1nc(=O)n(-c2cccc(C(N)=O)c2)c2cc(Cl)ccc12 [Example 134, 3-[7-chloro-4-(methylamino)-2-oxo-hydroquinazolin-1-yl]benzamide] | < 0.2 µM |
| N#Cc1cccc(-n2c(=O)nc(N3CC(O)C3)c3ccc(C(F)(F)F)cc32)c1 [Example 139, 3-[4-(3-hydroxyazetidinyl)-2-oxo-7-(trifluoromethyl)hydroquinazolinyl]-benzenecarbonitrile] | < 0.2 µM |
| N#Cc1cccc(-n2c(=O)nc(N)c3ccc(C(F)(F)F)cc32)c1 [Example 140, 3-[4-amino-2-oxo-7-(trifluoromethyl)-hydroquinazolinyl]benzenecarbonitrile] | < 0.2 µM |
| N#Cc1cccc(-n2c(=O)nc(N3CC[C@@H](O)C3)c3ccc(C(F)(F)F)cc32)c1 [Example 141] | < 0.2 µM |
| Cc1ccccc1-n1c(=O)[nH]c(=O)c2ccc(C(F)(F)F)cc21 [Example 147, 1-(2-methylphenyl)-7-(trifluoromethyl)-1,3-dihydroquinazoline-2,4-dione] | < 0.2 µM |
| Nc1nc(=O)n(-c2ccccc2Br)c2cc(Cl)ccc12 [Example 149, 4-amino-1-(2-bromophenyl)-7-chloro-hydroquinazolin-2-one] | < 0.2 µM |
| COc1ccccc1-n1c(=O)nc(N2CC[C@@H](O)C2)c2ccc(Cl)cc21 [Example 151, 4-((3R)-3-hydroxypyrrolidin-1-yl)-7-chloro-1-(2-methoxyphenyl)hydro-quinazolin-2-one] | < 0.2 µM |
| CNc1nc(=O)n(-c2cccc(C#N)c2)c2cc(Cl)ccc12 [Example 155, 3-[7-chloro-4-(methylamino)-2-oxo-hydroquinazolinyl]benzenecarbonitrile] | 0.2 to 0.5 µM |
| O=C(O)c1cccc(-n2c(=O)[nH]c(=O)c3ccc(Cl)cc32)c1 [Example 156, 3-(7-chloro-4-hydroxy-2-oxohydro-quinazolinyl)benzoic acid] | 1 to 10 µM |
| CNc1nc(=O)n(-c2cccc(O)c2C)c2cc(Cl)ccc12 [Example 157, 7-chloro-1-(3-hydroxy-2-methylphenyl)-4-(methylamino)hydroquinazolin-2-one] | < 0.2 µM |
| CN(C)C(=O)C1CN(c2nc(=O)n(-c3ccccc3)c3cc(Cl)ccc23)C1 [Example 159, [1-(7-chloro-2-oxo-1-phenylhydro-quinazolin-4-yl)azetidin-3-yl]-N,N-dimethylcarboxamide] | < 0.2 µM |

Same assay, conditions: L-methionine 500 uM, ATP 500 uM, numeric bound

| IC50 | Structure (SMILES) |
| --- | --- |
| > 10 µM | CNc1nc(=O)n(-c2ccccc2)c2cc(Cl)cc(OC3CN(C(=O)OC(C)(C)C)C3)c12 [Example 132, tert-butyl 3-[7-chloro-4-(methylamino)-2-oxo-1-phenylhydroquinazolin-5-yl-oxy]azetidinecarboxylate] |
